According to patent US12599136B2, “Substituted isophthalic acid diamides and their use as herbicides” (Bayer Aktiengesellschaft, priority 2020, dated 2026):

Assays:
Format in all cases: in vivo
[1] = system: Abutilon theophrasti; assay: Pre-emergence herbicidal action against ABUTH; details: visual score after 3 weeks vs untreated controls
Procedure, shortened: (§1)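 Seeds sown in sandy loam, soil-covered; compound sprayed on soil surface pre-emergence. Application: WP/EC, 600–800 l/ha, 0.2% wetting agent. Readout: visual % damage at 3 weeks.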

[2] = system: Alopecurus myosuroides; assay: Pre-emergence herbicidal action against ALOMY; details: 80 g/ha; visual score after 3 weeks vs untreated controls
Procedure, shortened: as §1

[3] = system: Amaranthus retroflexus; assay: Pre-emergence herbicidal action against AMARE; details: visual score after 3 weeks vs untreated controls
Procedure, shortened: as §1

[4] = system: Matricaria inodora; assay: Pre-emergence herbicidal action against MATIN; details: visual score after 3 weeks vs untreated controls
Procedure, shortened: as §1

[5] = system: Digitaria sanguinalis; assay: Pre-emergence herbicidal action against DIGSA
Procedure, shortened: as §1

[6] = system: Setaria viridis; assay: Pre-emergence herbicidal action against SETVI; details: 80 g/ha
Procedure, shortened: as §1

[7] = system: Viola tricolor; assay: Pre-emergence herbicidal action against VIOTR
Procedure, shortened: as §1

[8] = system: Alopecurus myosuroides; assay: Post-emergence herbicidal action against ALOMY
Procedure, shortened: (§2)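 Sandy loam, greenhouse; treatment 2–3 weeks after sowing, one-leaf stage. Aqueous suspension or emulsion from WP/EC sprayed on foliage (600–800 l/ha, 0.2% wetting agent). Readout: visual % action, ~3 weeks.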

[9] = system: Amaranthus retroflexus; assay: Post-emergence herbicidal action against AMARE; details: visual assessment about 3 weeks after treatment
Procedure, shortened: as §2

[10] = system: Avena fatua; assay: Post-emergence herbicidal action against AVEFA; details: 20 g/ha, visual assessment about 3 weeks after treatment
Procedure, shortened: as §2

[11] = system: Matricaria inodora; assay: Post-emergence herbicidal action against MATIN; details: visual assessment about 3 weeks after treatment
Procedure, shortened: as §2

[12] = system: Digitaria sanguinalis; assay: Post-emergence herbicidal action against DIGSA
Procedure: Seeds of monocotyledonous and dicotyledonous weed and crop plants are laid out in sandy loam soil in wood-fiber pots, covered with soil and cultivated in a greenhouse under good growth conditions. 2 to 3 weeks after sowing, the test plants are treated at the one-leaf stage. The compounds of the invention, formulated in the form of wettable powders (WP) or as emulsion concentrates (EC), are then sprayed onto the green parts of the plants in the form of an aqueous suspension or emulsion at a water application rate equivalent to 600 to 800 l/ha, with addition of 0.2% wetting agent. After the test plants have been left to stand in the greenhouse under optimal growth conditions for about 3 weeks, the action of the preparations is assessed visually in comparison to untreated controls (herbicidal action in percent (%): 100% activity=the plants have died, 0% activity=like control plants). […] The tables below illustrate, in an illustrative manner, the post-emergence herbicidal action of the compounds of the invention, the herbicidal activity being stated in percent.

[13] = system: Echinochloa crus-galli; assay: Pre-emergence herbicidal action against ECHCG; details: 80 g/ha; visual score after 3 weeks vs untreated controls
Procedure, shortened: as §1

[14] = system: Echinochloa crus-galli; assay: Post-emergence herbicidal action against ECHCG; details: visual assessment about 3 weeks after treatment
Procedure, shortened: as §2

[15] = system: Setaria viridis; assay: Post-emergence herbicidal action against SETVI; details: visual assessment about 3 weeks after treatment
Procedure, shortened: as §2

[16] = system: Pharbitis purpurea; assay: Post-emergence herbicidal action against PHBPU; details: visual assessment about 3 weeks after treatment
Procedure, shortened: as §2

[17] = system: Viola tricolor; assay: Post-emergence herbicidal action against VIOTR
Procedure, shortened: as §2

[18] = system: Veronica persica; assay: Pre-emergence herbicidal action against VERPE
Procedure, shortened: as §1

[19] = system: Avena fatua; assay: Pre-emergence herbicidal action against AVEFA; details: 80 g/ha; visual score after 3 weeks vs untreated controls
Procedure, shortened: as §1

SMILES	Pre-emergence action against ABUTH ([1]; 80 g/ha) [%]	Pre-emergence action against ALOMY [2] [%]	Pre-emergence action against AMARE ([3]; 20 g/ha) [%]	Pre-emergence action against AMARE ([3]; 80 g/ha) [%]	Pre-emergence action against MATIN ([4]; 80 g/ha) [%]	Pre-emergence action against DIGSA ([5]; 80 g/ha) [%]	Pre-emergence action against SETVI [6] [%]	Pre-emergence action against VIOTR ([7]; 80 g/ha) [%]	Post-emergence action against ALOMY ([8]; 20 g/ha) [%]	Post-emergence action against AMARE in % ([9]; 5 g/ha) [%]	Post-emergence action against AMARE in % ([9]; 20 g/ha) [%]	Post-emergence action against AVEFA in % [10] [%]	Post-emergence action against MATIN in % ([11]; 20 g/ha) [%]	Post-emergence action against DIGSA in % ([12]; 20 g/ha) [%]	Pre-emergence action against ECHCG [13] [%]	Pre-emergence action against DIGSA ([5]; 20 g/ha) [%]	Pre-emergence action against VIOTR ([7]; 20 g/ha) [%]	Post-emergence action against ECHCG in % ([14]; 20 g/ha) [%]	Post-emergence action against DIGSA in % ([12]; 5 g/ha) [%]	Post-emergence action against SETVI in % ([15]; 20 g/ha) [%]	other results
CCn1nnnc1NC(=O)c1ccc(C(F)(F)F)c(C(=O)N(C)C2CC2)c1Cl [Example 2-125]	100	100	100	100	100	100	100	100	80	90	90	80	90	90							Pre-emergence action against ABUTH ([1]; 20 g/ha): 90%
CCN(CC)C(=O)c1c(C(F)(F)F)ccc(C(=O)Nc2nnnn2CC)c1Cl [Example 2-135]	100	90	100	100	100	90	100	100	90	80	90	80	80	90	100	80	100	80	80	80	Pre-emergence action against ABUTH ([1]; 20 g/ha): 90%; Pre-emergence action against MATIN ([4]; 20 g/ha): 90%
CCN(C(=O)c1c(C(F)(F)F)ccc(C(=O)Nc2nnnn2C)c1C)C1CC1 [Example 1-32]	100	90	90	100	100	100	100	100	90	90	100	80		90	90	90	80	100	90	90	Post-emergence action against ALOMY ([8]; 5 g/ha): 80%; Post-emergence action against ECHCG in % ([14]; 5 g/ha): 100%; Post-emergence action against PHBPU in % ([16]; 5 g/ha): 80%; Post-emergence action against PHBPU in % ([16]; 20 g/ha): 90%; Post-emergence action against SETVI in % ([15]; 5 g/ha): 80%; Post-emergence action against VIOTR in % ([17]; 5 g/ha): 100%; Post-emergence action against VIOTR in % ([17]; 20 g/ha): 100%
CCN(CC)C(=O)c1c(C(F)(F)F)ccc(C(=O)Nc2nnnn2C)c1C [Example 1-31]	100	100	100	100	100	100	100	100	90	90	90	80		90	80	100		90	80	100	Pre-emergence action against VERPE ([18]; 80 g/ha): 90%; Post-emergence action against ALOMY ([8]; 5 g/ha): 80%; Post-emergence action against ECHCG in % ([14]; 5 g/ha): 90%; Post-emergence action against PHBPU in % ([16]; 5 g/ha): 90%; Post-emergence action against PHBPU in % ([16]; 20 g/ha): 90%; Post-emergence action against SETVI in % ([15]; 5 g/ha): 90%; Post-emergence action against VIOTR in % ([17]; 5 g/ha): 80%; Post-emergence action against VIOTR in % ([17]; 20 g/ha): 90%
CCn1nnnc1NC(=O)c1ccc(C(F)(F)F)c(C(=O)N(C)C2CC2)c1C [Example 2-21]	100		100	100	100	100	100	100	90	100	100		90	90	100	100	100	90	80	100	Pre-emergence action against AVEFA [19]: 80%; Pre-emergence action against MATIN ([4]; 20 g/ha): 90%; Pre-emergence action against VERPE ([18]; 20 g/ha): 80%; Pre-emergence action against VERPE ([18]; 80 g/ha): 100%; Post-emergence action against ALOMY ([8]; 5 g/ha): 80%; Post-emergence action against ECHCG in % ([14]; 5 g/ha): 90%; Post-emergence action against MATIN in % ([11]; 5 g/ha): 80%; Post-emergence action against PHBPU in % ([16]; 20 g/ha): 90%; Post-emergence action against SETVI in % ([15]; 5 g/ha): 80%; Post-emergence action against VIOTR in % ([17]; 5 g/ha): 100%; Post-emergence action against VIOTR in % ([17]; 20 g/ha): 100%
